Test system: human peripheral blood mononuclear cells (CMSP)
Assay: Test on lymphocyte proliferation: human peripheral blood mononuclear cells (3H-thymidine incorporation), with or without rhIL-2
Type: cell-based
Settings: for Proliferation of human peripheral blood mononuclear cells, Con A 2 μg/ml (cpm ± DS) / Proliferation of human peripheral blood mononuclear cells, Medium (cpm ± DS) / Proliferation of human peripheral blood mononuclear cells, PHA 10 μg/ml (cpm ± DS) / Proliferation of human peripheral blood mononuclear cells, aCD3 5 μg/ml (cpm ± DS) / Proliferation of human peripheral blood mononuclear cells, aCD3 + Con A (cpm ± DS) / Proliferation of human peripheral blood mononuclear cells, aCD3 + PHA (cpm ± DS): no rhIL-2; for Proliferation of human peripheral blood mononuclear cells, Con A 2 μg/ml (cpm ± DS) / Proliferation of human peripheral blood mononuclear cells, Medium (cpm ± DS) / Proliferation of human peripheral blood mononuclear cells, PHA 10 μg/ml (cpm ± DS) / Proliferation of human peripheral blood mononuclear cells, aCD3 5 μg/ml (cpm ± DS) / Proliferation of human peripheral blood mononuclear cells, aCD3 + Con A (cpm ± DS) / Proliferation of human peripheral blood mononuclear cells, aCD3 + PHA (cpm ± DS) / Proliferation of human peripheral blood mononuclear cells in the presence of rhIL-2, Con A 2 μg/ml (cpm ± DS) / Proliferation of human peripheral blood mononuclear cells in the presence of rhIL-2, Medium (cpm ± DS) / Proliferation of human peripheral blood mononuclear cells in the presence of rhIL-2, PHA 10 μg/ml (cpm ± DS) / Proliferation of human peripheral blood mononuclear cells in the presence of rhIL-2, aCD3 5 μg/ml (cpm ± DS) / Proliferation of human peripheral blood mononuclear cells in the presence of rhIL-2, aCD3 + Con A (cpm ± DS) / Proliferation of human peripheral blood mononuclear cells in the presence of rhIL-2, aCD3 + PHA (cpm ± DS): 5 days; for Proliferation of human peripheral blood mononuclear cells in the presence of rhIL-2, Con A 2 μg/ml (cpm ± DS) / Proliferation of human peripheral blood mononuclear cells in the presence of rhIL-2, Medium (cpm ± DS) / Proliferation of human peripheral blood mononuclear cells in the presence of rhIL-2, PHA 10 μg/ml (cpm ± DS) / Proliferation of human peripheral blood mononuclear cells in the presence of rhIL-2, aCD3 5 μg/ml (cpm ± DS) / Proliferation of human peripheral blood mononuclear cells in the presence of rhIL-2, aCD3 + Con A (cpm ± DS) / Proliferation of human peripheral blood mononuclear cells in the presence of rhIL-2, aCD3 + PHA (cpm ± DS): rhIL-2 100 UI/ml
From the text: Tests on Human Peripheral Blood Mononuclear Cells Material and Methods:
In order to study more deeply the effects of lactone on cell proliferation, we checked whether the effects described in the above section on cells of murine origin were specific to the cell type and the species or whether, on the other hand, these effects were xeno-independent. For this, we purified human peripheral blood mononuclear cells from healthy controls and we proceeded to study the possible effects of inhibition on the proliferative activity of peripheral blood mononuclear cells (CMSP) from humans, induced by different mitogenic agents acting alone and/or in costimulation with other mitogens and in the presence or absence of recombinant human interleukin 2 (rhIL-2).
Mitogens: Phytohaemaglutinin M (PHA) (Difco Lab., Detroit, Mich., USA), Concanavalin A (Con A, 2 μg/ml, Sigma Chemical Co., Mich., USA), Immobilised anti-CD3 (OKT3, 5 μg/ml, Ortho-mune, Orthodiagnostic System) and rhIL-2 (100 IU/ml, Hoffman-La Roche, N.J., USA).
All the reagents included in these tests were diluted in RPMI 1640 culture medium (Whitaker Bioproducts, Walkersville, USA) supplemented with 10% of decomplemented foetal calf serum (Biochrom K G, Berlin), L-glutamin (2 mM, Biochrom K G), Hepes (25 mM, Biochrom K G) and antibiotic (1% penicillin streptomycin, Difco Lab, Detroit, Mich., USA).
Also, all the mitogens were optimised in a dose response way in order to obtaining the maximum proliferative response after 5 days of culture.
Venous blood: The CMSP were obtained from venous blood extracted by antecubital venous puncture. 50 ml of blood were extracted to which were added 50 U of calcic heparin and the mixture was diluted 1/1 (vol/vol) with PSS.
Human mononucleated cells: In order to isolate the CMSP they were proceeded to be separated from the rest of the blood components by means of the formation of a density gradient on Ficoll. The cells thus obtained are resuspended in PSS and centrifuged at 400×g for 10 minutes (washing process) and then resuspended in PSS. This operation is repeated three times. In the last of them, PSS is replaced with complete medium.
General culture conditions: All cell cultures were developed under conditions of sterility in a vertical laminar flow chamber, using single-use sterile materials or materials sterilised in an autoclave or with ethylene oxide. The cultures were conserved in a stove kept at a temperature of 37° C., in an atmosphere with 5% CO2 and relative humidity of 95%. In the various experiments performed, the purified CMSP cell preparations were incubated in sterile dishes with 96 wells at concentrations of 5×10^4 cells/well (200 μl) in the presence of different concentrations of different mitogens for 5 days.
The method used for quantifying the cell proliferation was analysis of the incorporation of ^3H-thymidine (^3H-T) into DNA synthesised de novo, detecting the emission of β radiation from the dry extracts of cell cultures to which the tritiated base had been added before its finalisation and collection. The synthesis of DNA was done in triplicate on sterile dishes with 96 flat-bottom wells.
From 20 to 24 hour prior to terminating the cell culture, 1 μCi of ^3H-T was added to each well containing medium; the cultures were gathered by suction through a glass filter, using a Skatron culture collector for this.
The synthesis of DNA has been expressed in counts per minute (cpm). Each test was conducted in triplicate, with those data having a variability greater than 10% compared to the mean of the triplicate being rejected, since they could indicate a technical error or contamination in the culture. The cultures were carried out at a constant cell volume per well, as well as at a constant volume of 200 μl.
Negative Control: Cells in the Presence of Complete Culture Medium
Positive Control: Stimulation of Cells without the Presence of Lactone […]

C=C1C(=O)OC(CCc2ccc(OC)cc2)C1C (stereo not drawn) [lactone]
Proliferation of human peripheral blood mononuclear cells, Con A 2 μg/ml (cpm ± DS) (Lactone 10 μg/ml): 48 ± 7 cpm | Proliferation of human peripheral blood mononuclear cells, Medium (cpm ± DS) (Lactone 10 μg/ml): 72 ± 72 cpm | Proliferation of human peripheral blood mononuclear cells, PHA 10 μg/ml (cpm ± DS) (Lactone 10 μg/ml): 71 ± 14 cpm | Proliferation of human peripheral blood mononuclear cells, aCD3 5 μg/ml (cpm ± DS) (Lactone 10 μg/ml): 119 ± 7 cpm | Proliferation of human peripheral blood mononuclear cells, aCD3 + Con A (cpm ± DS) (Lactone 10 μg/ml): 11 ± 1 cpm | Proliferation of human peripheral blood mononuclear cells, aCD3 + PHA (cpm ± DS) (Lactone 10 μg/ml): 23 ± 7 cpm | Proliferation of human peripheral blood mononuclear cells in the presence of rhIL-2, Con A 2 μg/ml (cpm ± DS) (Lactone 10 μg/ml): 611 ± 75 cpm | Proliferation of human peripheral blood mononuclear cells in the presence of rhIL-2, Medium (cpm ± DS) (Lactone 10 μg/ml): 866 ± 66 cpm | Proliferation of human peripheral blood mononuclear cells in the presence of rhIL-2, PHA 10 μg/ml (cpm ± DS) (Lactone 10 μg/ml): 579 ± 1033 cpm | Proliferation of human peripheral blood mononuclear cells in the presence of rhIL-2, aCD3 5 μg/ml (cpm ± DS) (Lactone 10 μg/ml): 489 ± 25 cpm | Proliferation of human peripheral blood mononuclear cells in the presence of rhIL-2, aCD3 + Con A (cpm ± DS) (Lactone 10 μg/ml): 164 ± 65 cpm | Proliferation of human peripheral blood mononuclear cells in the presence of rhIL-2, aCD3 + PHA (cpm ± DS) (Lactone 10 μg/ml): 304 ± 35 cpm | Proliferation of human peripheral blood mononuclear cells, Con A 2 μg/ml (cpm ± DS) (Lactone 100 μg/ml): 204 ± 43 cpm | Proliferation of human peripheral blood mononuclear cells, Medium (cpm ± DS) (Lactone 100 μg/ml): 104 ± 26 cpm | Proliferation of human peripheral blood mononuclear cells, PHA 10 μg/ml (cpm ± DS) (Lactone 100 μg/ml): 1086 ± 308 cpm | Proliferation of human peripheral blood mononuclear cells, aCD3 5 μg/ml (cpm ± DS) (Lactone 100 μg/ml): 39 ± 10 cpm | Proliferation of human peripheral blood mononuclear cells, aCD3 + Con A (cpm ± DS) (Lactone 100 μg/ml): 8 ± 6 cpm | Proliferation of human peripheral blood mononuclear cells, aCD3 + PHA (cpm ± DS) (Lactone 100 μg/ml): 13 ± 4 cpm | Proliferation of human peripheral blood mononuclear cells in the presence of rhIL-2, Con A 2 μg/ml (cpm ± DS) (Lactone 100 μg/ml): 532 ± 109 cpm | Proliferation of human peripheral blood mononuclear cells in the presence of rhIL-2, Medium (cpm ± DS) (Lactone 100 μg/ml): 918 ± 1 cpm | Proliferation of human peripheral blood mononuclear cells in the presence of rhIL-2, PHA 10 μg/ml (cpm ± DS) (Lactone 100 μg/ml): 892 ± 199 cpm | Proliferation of human peripheral blood mononuclear cells in the presence of rhIL-2, aCD3 5 μg/ml (cpm ± DS) (Lactone 100 μg/ml): 400 ± 44 cpm | Proliferation of human peripheral blood mononuclear cells in the presence of rhIL-2, aCD3 + Con A (cpm ± DS) (Lactone 100 μg/ml): 237 ± 109 cpm | Proliferation of human peripheral blood mononuclear cells in the presence of rhIL-2, aCD3 + PHA (cpm ± DS) (Lactone 100 μg/ml): 286 ± 10 cpm | Lactone concentration at which the blastogen response induced in CMSP falls by 50% (induced by Con A+rhIL-2): 0.27 µg/mL | Lactone concentration at which the blastogen response induced in CMSP falls by 50% (induced by Concavalin A (Con A)): 0.5 µg/mL | Lactone concentration at which the blastogen response induced in CMSP falls by 50% (induced by PHA+rhIL-2): 0.29 µg/mL | Lactone concentration at which the blastogen response induced in CMSP falls by 50% (induced by aCD3+Con A): 0.21 µg/mL | Lactone concentration at which the blastogen response induced in CMSP falls by 50% (induced by aCD3+PHA): 0.24 µg/mL | Lactone concentration at which the blastogen response induced in CMSP falls by 50% (induced by immobilised aCD3+Con A+rhIL-2): 0.25 µg/mL | Lactone concentration at which the blastogen response induced in CMSP falls by 50% (induced by immobilised aCD3+PHA+rhIL-2): 0.26 µg/mL | Lactone concentration at which the blastogen response induced in CMSP falls by 50% (induced by immobilised aCD3+rhIL-2): 0.24 µg/mL | Lactone concentration at which the blastogen response induced in CMSP falls by 50% (induced by immobilised anti-CD3 (aCD3)): 0.06 µg/mL | Lactone concentration at which the blastogen response induced in CMSP falls by 50% (induced by phytohaemaglutinin M (PHA)): 0.25 µg/mL | Lactone concentration at which the blastogen response induced in CMSP falls by 50% (induced by rhIL-2): 0.26 µg/mL | Lactone concentration at which the spontaneous blastogen response of the CMSP falls by 50% (no mitogen): 0.66 µg/mL
